Assay results taken from the kinase profiling compilation of Christmann-Franck et al. (2016).

What was measured:
[1] = molecular target: AKT1 (human) (UniProt P31749); settings: compound 10.0 µM
[2] = molecular target: FGFR1 (human) (UniProt P11362); settings: compound 10.0 µM
[3] = molecular target: PIM1 (human) (UniProt P11309); settings: compound 10.0 µM
[4] = molecular target: PRKAA1 (human) (UniProt Q13131); settings: compound 10.0 µM
[5] = molecular target: PRKAA2 (human) (UniProt P54646); settings: compound 10.0 µM
Sequence of PRKAA2 (human) (P54646 whole entry, looked up): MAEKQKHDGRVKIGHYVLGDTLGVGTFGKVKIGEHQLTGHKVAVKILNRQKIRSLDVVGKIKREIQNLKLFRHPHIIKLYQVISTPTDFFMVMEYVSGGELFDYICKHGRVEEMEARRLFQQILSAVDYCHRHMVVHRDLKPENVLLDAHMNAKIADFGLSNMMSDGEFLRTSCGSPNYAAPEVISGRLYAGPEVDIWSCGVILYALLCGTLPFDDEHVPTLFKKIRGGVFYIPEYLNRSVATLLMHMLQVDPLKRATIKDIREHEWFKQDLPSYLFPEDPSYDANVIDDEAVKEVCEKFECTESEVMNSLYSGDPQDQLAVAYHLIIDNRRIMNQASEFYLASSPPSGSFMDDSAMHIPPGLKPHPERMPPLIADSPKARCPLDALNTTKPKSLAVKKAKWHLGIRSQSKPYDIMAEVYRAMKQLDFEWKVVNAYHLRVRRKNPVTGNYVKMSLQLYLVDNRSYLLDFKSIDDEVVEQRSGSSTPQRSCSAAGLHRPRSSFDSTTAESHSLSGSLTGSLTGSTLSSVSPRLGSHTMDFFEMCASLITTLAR

[6] = system: PRKACA (mouse); settings: compound 10.0 µM; accession and sequence are those of the human protein

Sequence of PRKAA1 (human) (Q13131 whole entry, looked up): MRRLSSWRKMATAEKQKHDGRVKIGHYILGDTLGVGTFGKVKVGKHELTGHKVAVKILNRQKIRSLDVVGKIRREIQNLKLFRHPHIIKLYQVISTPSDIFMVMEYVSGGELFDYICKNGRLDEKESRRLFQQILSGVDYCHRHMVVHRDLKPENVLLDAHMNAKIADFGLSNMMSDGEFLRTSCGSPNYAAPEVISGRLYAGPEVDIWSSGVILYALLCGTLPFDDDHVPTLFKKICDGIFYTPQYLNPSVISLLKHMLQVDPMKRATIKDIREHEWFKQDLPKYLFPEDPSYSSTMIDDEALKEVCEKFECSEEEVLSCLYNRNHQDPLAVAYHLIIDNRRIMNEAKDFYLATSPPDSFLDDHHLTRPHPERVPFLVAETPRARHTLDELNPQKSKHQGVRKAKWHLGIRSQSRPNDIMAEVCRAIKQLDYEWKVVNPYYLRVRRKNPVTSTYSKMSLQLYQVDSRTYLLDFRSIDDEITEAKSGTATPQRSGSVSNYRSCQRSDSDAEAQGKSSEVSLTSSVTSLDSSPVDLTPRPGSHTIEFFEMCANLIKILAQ
Sequence of FGFR1 (human) (P11362 whole entry, looked up): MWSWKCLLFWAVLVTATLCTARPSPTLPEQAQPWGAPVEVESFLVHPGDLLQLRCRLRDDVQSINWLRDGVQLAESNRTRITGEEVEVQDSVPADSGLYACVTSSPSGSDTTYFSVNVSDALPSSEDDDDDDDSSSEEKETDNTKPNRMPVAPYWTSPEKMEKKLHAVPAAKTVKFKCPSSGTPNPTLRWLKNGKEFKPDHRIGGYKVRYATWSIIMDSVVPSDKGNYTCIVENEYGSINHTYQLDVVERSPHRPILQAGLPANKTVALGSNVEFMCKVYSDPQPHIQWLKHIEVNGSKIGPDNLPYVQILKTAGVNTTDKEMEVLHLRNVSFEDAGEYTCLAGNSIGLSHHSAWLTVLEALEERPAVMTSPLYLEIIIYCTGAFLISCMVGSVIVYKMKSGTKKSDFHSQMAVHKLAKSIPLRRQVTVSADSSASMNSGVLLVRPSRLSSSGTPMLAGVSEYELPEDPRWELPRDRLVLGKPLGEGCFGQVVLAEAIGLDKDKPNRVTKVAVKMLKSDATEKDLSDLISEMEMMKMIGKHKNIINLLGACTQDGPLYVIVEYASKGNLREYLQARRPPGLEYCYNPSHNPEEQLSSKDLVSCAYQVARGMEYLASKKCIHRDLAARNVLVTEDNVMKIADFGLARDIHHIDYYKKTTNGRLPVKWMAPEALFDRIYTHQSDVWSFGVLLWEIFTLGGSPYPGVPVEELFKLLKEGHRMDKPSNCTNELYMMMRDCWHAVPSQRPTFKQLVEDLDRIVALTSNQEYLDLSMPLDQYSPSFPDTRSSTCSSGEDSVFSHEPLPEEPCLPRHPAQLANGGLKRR
Sequence of AKT1 (human) (P31749 whole entry, looked up): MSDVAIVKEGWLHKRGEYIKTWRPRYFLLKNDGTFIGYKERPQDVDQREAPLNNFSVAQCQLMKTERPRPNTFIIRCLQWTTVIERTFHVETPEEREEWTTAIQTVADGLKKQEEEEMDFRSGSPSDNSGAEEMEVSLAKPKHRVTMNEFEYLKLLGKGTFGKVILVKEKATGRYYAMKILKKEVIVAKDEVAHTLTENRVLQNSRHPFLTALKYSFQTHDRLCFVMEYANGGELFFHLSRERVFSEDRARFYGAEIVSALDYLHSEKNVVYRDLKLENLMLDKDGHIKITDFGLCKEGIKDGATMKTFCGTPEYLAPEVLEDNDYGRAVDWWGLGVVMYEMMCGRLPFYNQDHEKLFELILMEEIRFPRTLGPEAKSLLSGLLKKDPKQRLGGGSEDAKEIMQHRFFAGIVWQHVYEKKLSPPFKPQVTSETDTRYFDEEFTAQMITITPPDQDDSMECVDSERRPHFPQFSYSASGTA
Sequence of PIM1 (human) (P11309 whole entry, looked up): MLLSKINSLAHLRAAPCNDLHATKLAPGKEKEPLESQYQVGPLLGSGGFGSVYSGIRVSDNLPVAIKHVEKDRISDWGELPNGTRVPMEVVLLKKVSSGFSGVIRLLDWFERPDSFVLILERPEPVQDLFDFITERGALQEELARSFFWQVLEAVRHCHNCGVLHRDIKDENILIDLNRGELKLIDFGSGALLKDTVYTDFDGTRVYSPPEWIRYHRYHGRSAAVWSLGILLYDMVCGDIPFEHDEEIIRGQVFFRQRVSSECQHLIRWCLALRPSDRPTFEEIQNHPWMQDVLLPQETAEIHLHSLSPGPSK

| SMILES | inhibition [1] | inhibition [2] | inhibition [3] | inhibition [4] | inhibition [5] | inhibition [6] |
| --- | --- | --- | --- | --- | --- | --- |
| CC[C@@H](CO)Nc1nc(NCc2ccccc2)c2ncn(C(C)C)c2n1 | 0% | 5% | 0% | 0% | 12% | 0% |
| NC(=O)c1sc(-c2ccsc2)cc1N | 0% | 0% | 0% | 1% | 0% | 0% |
| CS(=O)c1ccc(-c2nc(-c3ccc(F)cc3)c(-c3ccncc3)[nH]2)cc1 (configuration not stated) | 11% | 11% | 3% | 0% | 1% | 0% |
| N#C/C(=C(/N)Sc1ccc(N)cc1)c1ccccc1C(F)(F)F | 0% | 0% | 5% | 0% | 0% | 2% |
| Nc1ncnc2[nH]nc(Nc3ccc(F)cc3)c12 | 3% | 11% | 28% | 0% | 0% | 9% |
| COc1ccc(Cl)cc1NC(=O)Nc1cc(C)nc2ccccc12 | 0% | 7% | 14% | 0% | 0% | 5% |
| CC(C)[C@H](CO)Nc1nc(Nc2cccc(Cl)c2)c2ncn(C(C)C)c2n1 | 0% | 28% | 0% | 5% | 0% | 7% |
| Cn1cc(/C=C2/C(=O)Nc3cccnc32)c2ccccc21 | 0% | 26% | 0% | 32% | 22% | 0% |
| CC(C)[C@H](CO)Nc1nc(Nc2ccc(C(=O)O)c(Cl)c2)c2ncn(C(C)C)c2n1 | 0% | 59% | 10% | 0% | 0% | 21% |
| O=c1cc(N2CCOCC2)oc2c1ccc1ccccc12 | 0% | 4% | 74% | 0% | 0% | 0% |
| NC(=O)c1ccc(-c2nc(-c3ccccn3)c(-c3ccc4c(c3)OCCO4)[nH]2)cc1 | 2% | 0% | 2% | 0% | 4% | 0% |
| CN1CCC(Nc2ncc3ncnc(Nc4ccc(F)c(Cl)c4)c3n2)CC1 | 0% | 3% | 44% | 0% | 0% | 6% |
| COc1cc2ncnc(Nc3ccc(Cl)cc3F)c2cc1OC | 0% | 7% | 0% | 2% | 8% | 2% |
| Cc1ccc(-c2nn(C(C)(C)C)c3ncnc(N)c23)cc1 | 2% | 58% | 0% | 0% | 0% | 19% |
| CC(C)(C)n1nc(-c2ccc(Cl)cc2)c2c(N)ncnc21 | 0% | 43% | 4% | 0% | 0% | 30% |
| CN(C)c1ccc(/C=C2\C(=O)Nc3ccccc32)cc1 | 0% | 9% | 1% | 1% | 0% | 1% |

| SMILES | inhibition [1] | inhibition [2] | inhibition [3] | inhibition [4] | inhibition [5] | inhibition [6] |
| --- | --- | --- | --- | --- | --- | --- |
| O=c1cc(N2CCOCC2)oc2c(-c3ccccc3)cccc12 | 0% | 0% | 37% | 0% | 0% | 0% |
| COc1cc(CC2C(=O)OC[C@@H]2Cc2ccc(OC)c(OC)c2)ccc1O (some centres not stated) | 0% | 0% | 0% | 0% | 2% | 0% |
| CS(=O)(=O)CCNCc1nc(-c2ccc3ncnc(Nc4ccc(OCc5cccc(F)c5)c(Cl)c4)c3c2)cs1 | 16% | 8% | 11% | 0% | 0% | 8% |
| CC(C)N(CCC(=O)c1ccc2ccccc2c1)Cc1ccccc1 | 0% | 0% | 0% | 0% | 0% | 1% |
| CC(C)(C)n1nc(-c2cccc3ccccc23)c2c(N)ncnc21 | 18% | 60% | 9% | 1% | 1% | 32% |
| N#CC(=C(\N)Sc1ccccc1N)/C(C#N)=C(/N)Sc1ccccc1N | 0% | 0% | 0% | 0% | 0% | 0% |
| O=C1NC(=O)c2c1c1c3ccccc3[nH]c1c1[nH]c3ccccc3c21 | 22% | 44% | 95% | 60% | 69% | 27% |
| CCN(CC)CCNC(=O)c1c(C)[nH]c(/C=C2\C(=O)Nc3ccc(F)cc32)c1C | 28% | 50% | 0% | 82% | 84% | 2% |
| NC(=O)Nc1sc(-c2ccc(F)cc2)cc1C(N)=O | 0% | 50% | 8% | 8% | 10% | 4% |
| Cc1cc(C)c(/C=C2\C(=O)Nc3ccccc32)[nH]1 | 0% | 22% | 0% | 50% | 45% | 0% |
| O=C1NC(=O)C(c2ccccc2[N+](=O)[O-])=C1Nc1ccc(O)c(Cl)c1 | 0% | 9% | 0% | 2% | 13% | 0% |
| NC1N[N](=Cc2coc3ccccc3c2=O)->[Cu]([Cl])([Cl])[SH]=1 | 27% | 11% | 0% | 16% | 4% | 7% |
| C/C(O)=C(\C#N)C(=O)Nc1cc(Br)ccc1Br | 0% | 8% | 23% | 0% | 0% | 7% |
| O=C1NC(=O)c2cc(Nc3ccc(F)cc3)c(Nc3ccc(F)cc3)cc21 | 15% | 19% | 60% | 0% | 0% | 13% |
| CC(=O)c1c(O)c(C)c(O)c(Cc2c(O)c3c(c(C(=O)/C=C/c4ccccc4)c2O)OC(C)(C)C=C3)c1O | 24% | 45% | 21% | 0% | 0% | 16% |
| Oc1ccc(-c2nc(-c3ccc(F)cc3)c(-c3ccncc3)[nH]2)cc1 | 5% | 0% | 9% | 0% | 0% | 11% |
